Our source for the Kd values is US20100113291A1 (CENTRE NATIONAL DE LA RECHERCHE SCIENTIFIQUE, priority 2006, published 2010).

For orientation: Kd means a measure of binding affinity in units of concentration.

This test addresses T1, MabA-C60V/S144L (Mycobacterium tuberculosis, UniProt P9WGT3, C60V/S144L).
T1 construct: made in house; host or cells: Escherichia coli
Format: binding. The conditions noted are these: read-out: KD for the cofactor.

Each structure is given as a SMILES string.

Take `NC(=O)C1=CN([C@@H]2O[C@H](COP(=O)(O)OP(=O)(O)OC[C@H]3O[C@@H](n4cnc5c(N)ncnc54)[C@H](OP(=O)(O)O)[C@@H]3O)[C@@H](O)[C@H]2O)C=CC1` [NADPH]: the Kd was 11.2 µM.
